Data: patent US20040157913A1, “Kappa opiate agonists for the treatment of bladder diseases” (priority 2001, published 2004)

Columns and labels:
Assay type in all cases: in vivo
[1] = Urine excretion in rats with increased urine excretion provoked by intraperitoneal saline (Lipschitz model); details: rats fasted overnight, 100 ml/kg physiological saline i.p., urine collected over 6 hours, dose 100 mg/kg; increase as a function of dose
Protocol: (§1) A model for measuring the effect on urine excretion is described in Lipschitz et al., J. Pharmacol. Exp. Ther. 1943; 79: 97-110. The substance to be investigated is given to rats who had previously been denied food overnight while being given free access to water. Increased urine excretion is provoked by simultaneous intraperitoneal injection of 100 ml/kg of physiological saline solution. Immediately after administration of the substance, the bladder was emptied by gentle massage of the abdomen above the bladder. The rats are subsequently kept in metabolism cages in which the urine is collected over a period of 6 hours.

[2] = Urine excretion in normal rats (without induction of increased urine excretion); details: no saline induction, dose 30 mg/kg po, increase as a function of dose
Protocol: as §1
The effect on urine excretion in normal rats is tested analogously (i.e. without induction of increased urine excretion, see above). N-Methyl-N-[(1S)-1-phenyl-2-((3S)-3-hydroxypyrrolidin-1-yl)ethyl]-2,2-diphenylacetamide increases urine excretion as a function of dose, with 5.5 times the amount of urine being excreted at only 30 mg/kg po.

[3] = system: irritable bladder in female apes; assay: Animal model for irritable bladder induced by direct infusion of acetone into the bladder (Ghoniem et al.); details: doses of 3, 10 and 30 mg/kg
Protocol: The classical animal model for irritable bladder is described in Ghoniem et al., Neurourol. Urodyn. 1995; 14: 657-65. In female apes, irritable bladder is induced by direct infusion of acetone into the bladder. The animals are kept in metabolism cages designed for continuous monitoring of miction (urination) of the animals. The frequency, emptying volumes and flow rate of the urine are measured continuously via urine flow meters. […] Furthermore, considerable changes in bladder physiology are observed in the first week after acetone infusion: the bladder performance, measured in ml/cm, drops by almost 95%. The emptying behaviour also changes considerably, with the frequency of emptying increasing greatly with the picture of frequent dribbling and at the same time with an emptying volume reduced by about 70%. […] These changes in behaviour observed in apes are consistent with the clinical picture of considerable discomfort and pain.

CN(C(=O)C(c1ccccc1)c1ccccc1)[C@H](CN1CC[C@H](O)C1)c1ccccc1 [N-methyl-N-[(1S)-1-phenyl-2-((3S)-3-hydroxypyrrolidin-1-yl)ethyl]-2,2-diphenylacetamide]
amount of urine excreted (multiple) [1]: twice the amount of urine
amount of urine excreted (multiple) [2]: 5.5 times
effect on bladder function [3]: normalises bladder function in a dose-dependent manner
